According to patent US10329289B2, “6,7-dihydro-5H-pyrrolo[3,4-B]pyridin-5-one allosteric modulators of the M4 muscarinic acetylcholine receptor” (Merck Sharp & Dohme Corp., priority 2015, dated 2019):
pEC50: −log10 of the molar value.

Target: T1, human M4 muscarinic acetylcholine receptor (Homo sapiens, UniProt P08173)
T1 construct: expressed in transfected cells; host or cells: CHO-K1
T1 sequence (P08173 1-479): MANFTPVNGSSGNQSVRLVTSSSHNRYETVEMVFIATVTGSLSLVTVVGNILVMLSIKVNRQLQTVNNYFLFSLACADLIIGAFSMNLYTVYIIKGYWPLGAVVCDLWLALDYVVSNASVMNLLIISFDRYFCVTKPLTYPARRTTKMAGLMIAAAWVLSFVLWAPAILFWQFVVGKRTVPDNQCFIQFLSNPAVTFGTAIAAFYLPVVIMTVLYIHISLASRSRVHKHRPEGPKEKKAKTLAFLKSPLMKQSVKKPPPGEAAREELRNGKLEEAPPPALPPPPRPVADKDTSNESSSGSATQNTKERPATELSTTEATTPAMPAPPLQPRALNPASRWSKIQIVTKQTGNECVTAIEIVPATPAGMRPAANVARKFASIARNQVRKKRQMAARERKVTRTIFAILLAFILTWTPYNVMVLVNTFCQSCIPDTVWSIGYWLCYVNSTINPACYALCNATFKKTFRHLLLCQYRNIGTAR
Test: human FLIPR-based M4 PAM assay (Ca2+ mobilization, CHO-K1 cells with human M4 receptor and Gαqi5)
Assay type: cell-based
Conditions: acetylcholine at 20% of maximum response, read-out: M4 PAM IP
How it was run: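 Calcium-mobilization (FLIPR) readout in dye-loaded CHO-K1 cells co-expressing human M4 receptor and Gαqi5. Potentiation measured against acetylcholine at a concentration giving 20% of maximal response, with an optional 70% addition; the reported value is the curve inflection point from a 4-parameter logistic fit.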

| Structure (SMILES) | pEC50 |
| --- | --- |
| Cc1cc2c(nc1N1CCC(OCC3CC3(C)C)CC1)CNC2=O (stereo not shown) [Example 311, 2-(4-((2,2-Dimethylcyclopropyl)methoxy)piperidin-1-yl)-3-methyl-6,7-dihydro-5H-pyrrolo[3,4-b]pyridin-5-one] | 6.16 |
| Cc1cc2c(nc1N1CCC(OCC3(CO)CC3)CC1)CNC2=O [Example 312, 2-(4-((1-(hydroxymethyl)cyclopropyl)methoxy)piperidin-1-yl)-3-methyl-6,7-dihydro-5H-pyrrolo[3,4-b]pyridin-5-one] | 6.19 |
| COCCn1cc(OC2CCN(c3nc4c(cc3C)C(=O)NC4)CC2)cn1 [Example 312A, 2-(4-((1-(2-methoxyethyl)-1H-pyrazol-4-yl)oxy)piperidin-1-yl)-3-methyl-6,7-dihydro-5H-pyrrolo[3,4-b]pyridin-5-one] | 5.60 |
| Cc1cc2c(nc1N1CCC(OCC3(O)CC3)CC1)CNC2=O [Example 312B, 2-(4-((1-hydroxycyclopropyl)methoxy)piperidin-1-yl)-3-methyl-6,7-dihydro-5H-pyrrolo[3,4-b]pyridin-5-one] | 5.95 |
| Cc1cc2c(nc1N1CCC(Oc3ccc4[nH]ncc4c3Cl)CC1)CNC2=O [Example 314, 2-(4-((4-Chloro-1H-indazol-5-yl)ox)piperidin-1-yl)-3-methyl-6,7-dihydro-5H-pyrrolo[3,4-b]pyridin-5-one] | 6.17 |
| Cc1cc2c(nc1N1CCC(Oc3cnn(CC4CC4)c3)CC1)CNC2=O [Example 321A, 2-(4-((1-(cyclopropylmethyl)-1H-pyrazol-4-yl)oxy)piperidin-1-yl)-3-methyl-6,7-dihydro-5H-pyrrolo[3,4-b]pyridin-5-one] | 6.36 |
| COc1ccc(OC2CCN(c3nc4c(cc3C)C(=O)N(C)C4C(C)(C)O)CC2)cn1 (stereo not shown) [Example 322, 7-(2-Hydroxypropan-2-yl)-2-(4-((6-methoxypyridin-3-yl)oxy)piperidin-1-yl)-3,6-dimethyl-6,7-dihydro-5H-pyrrolo[3,4-b]pyridin-5-one] | 6.30 |
| COc1ccc(OC2CCN(c3nc4c(cc3C)C(=O)N(C)[C@H]4C(C)(C)O)CC2)cn1 [Example 323A, (R)-7-(2-Hydroxypropan-2-yl)-2-(4-((6-methoxpyridin-3-yl)oxy)piperidin-1-yl)-3,6-dimethyl-6,7-dihydro-5H-pyrrolo[3,4-b]pyridin-5-one] | 6.58 |
| Cc1cc2c(nc1N1CCC(Oc3ccc(NCCO)nc3)CC1)CNC2=O [Example 324E, 2-(4-((6-((2-Hydroxyethyl)amino)pyridin-3-yl)oxy)piperidin-1-yl)-3-methyl-6,7-dihydro-5H-pyrrolo[3,4-b]pyridin-5-one] | 6.38 |
| Cc1cc2c(nc1N1CCC(Oc3ccc(O)nc3)CC1)CNC2=O [Example 326, 2-(4-((6-Hydroxypyridin-3-yl)ox)piperidin-1-yl)-3-methyl-6,7-dihydro-5H-pyrrolo[3,4-b]pyridin-5-one] | 5.78 |
| COc1ccc(OC2CCN(c3nc4c(cc3Cl)C(=O)NC4)CC2)cn1 [Example 327, 3-Chloro-2-(4-((6-methoxypyridin-3-yl)ox)piperidin-1-yl)-6,7-dihydro-5H-pyrrolo[3,4-b]pyridin-5-one] | 6.69 |

Now from value to compound:

| pEC50 | Structure (SMILES) |
| --- | --- |
| 7.46 | Cc1c(N2CCC(Oc3ccc4c(c3)COC4)CC2)nc2c(c1C)C(=O)N(CC(N)=O)C2 [Example 310A, 2-(2-(4-((1,3-dihydro-2-benzofuran-5-yl)oxy)piperidin-1-yl)-3,4-dimethyl-5-oxo-5,7-dihydro-6H-pyrrolo[3,4-b]pyridin-6-yl)acetamide] |
| 6.97 | Cc1cc2c(nc1N1CCC(Oc3cnn(C4CC4)c3)CC1)CNC2=O [Example 311A, 2-(4-((1-cyclopropyl-1H-pyrazol-4-yl)oxy)piperidin-1-yl)-3-methyl-6,7-dihydro-5H-pyrrolo[3,4-b]pyridin-5-one] |
| 7.52 | Cc1cc2c(nc1N1CCC(Oc3ccc4[nH]nc(Cl)c4c3)CC1)CNC2=O [Example 313, 2-(4-((3-Chloro-1H-indazol-5-yl)ox)piperidin-1-yl)-3-methyl-6,7-dihydro-5H-pyrrolo[3,4-b]pyridin-5-one] |
| 7.10 | Cc1cc2c(nc1N1CCC(Oc3ccc4[nH]nc(Br)c4c3)CC1)CNC2=O [Example 315, 2-(4-((3-bromo-1H-indazol-5-yl)oxy)piperidin-1-yl)-3-methyl-6,7-dihydro-5H-pyrrolo[3,4-b]pyridin-5-one] |
| 6.70 | Cc1cc2c(nc1N1CCC(Oc3ccc4[nH]nc(C#N)c4c3)CC1)CNC2=O [Example 316, 5-((1-(3-Methyl-5-oxo-6,7-dihydro-5H-pyrrolo[3,4-b]pyridin-2-yl)piperidin-4-yl)oxy)-1H-indazole-3-carbonitrile] |
| 6.90 | Cc1cc2c(nc1N1CCC(Oc3cc(F)c4[nH]ncc4c3)CC1)CNC2=O [Example 317, 2-(4-((7-Fluoro-1H-indazol-5-yl)ox)piperidin-1-yl)-3-methyl-6,7-dihydro-5H-pyrrolo[3,4-b]pyridin-5-one] |
| 6.81 | COc1ccc(OC2CCN(c3nc4c(cc3C)C(=O)N(C[C@@H](O)C(F)(F)F)C4)CC2)cn1 [Example 318, (R)-2-(4-((6-Methoxypyridin-3-yl)oxy)piperidin-1-yl)-3-methyl-6-(3,3,3-trifluoro-2-hydroxypropyl)-6,7-dihydro-5H-pyrrolo[3,4-b]pyridin-5-one] |
| 7.02 | COc1ccc(OC2CCN(c3nc4c(cc3C)C(=O)N(C[C@H](O)C(F)(F)F)C4)CC2)cn1 [Example 319, (S)-2-(4-((6-methoxypyridin-3-yl)oxy)piperidin-1-yl)-3-methyl-6-(3,3,3-trifluoro-2-hydroxypropyl)-6,7-dihydro-5H-pyrrolo[3,4-b] pyridin-5-one] |
| 6.82 | CNc1ccc(OC2CCN(c3nc4c(cc3C)C(=O)NC4)CC2)cn1 [Example 320, 3-Methyl-2-(4-((6-(methylamino)pyridin-3-yl)oxy)piperidin-1-yl)-6,7-dihydro-5H-pyrrolo[3,4-b]pyridin-5-one] |
| 6.71 | Cc1cc2c(nc1N1CCC(Oc3ccc4c(c3)CC(C)(C)O4)CC1)CNC2=O [Example 321, 2-(4-((2,2-Dimethyl-2,3-dihydrobenzofuran-5-yl)oxy)piperidin-1-yl)-3-methyl-6,7-dihydro-5H-pyrrolo[3,4-b]pyridin-5-one] |
| 7.04 | Cc1cc2c(nc1N1CCC(Oc3ccc4c(c3)CCOCC4)CC1)CNC2=O [Example 321B, 3-methyl-2-(4-((1,2,4,5-tetrahydrobenzo[d]oxepin-7-yl)oxy)piperidin-1-yl)-6,7-dihydro-5H-pyrrolo[3,4-b]pyridin-5-one] |
| 7.77 | Cc1cc2c(nc1N1CCC(Oc3ccc4c(c3)CC(O)C4)CC1)CNC2=O (stereo not shown) [Example 324, 2-(4-((2-Hydroxy-2,3-dihydro-1H-inden-5-yl)oxy)piperidin-1-yl)-3-methyl-6,7-dihydro-5H-pyrrolo[3,4-b]pyridin-5-one] |
| 6.69 | Cc1cc2c(nc1N1CCC(Oc3cccc(C#N)c3)CC1)CN(P(=O)(O)O)C2=O [Example 325, Ammonium (2-(4-(3-cyanophenoxy)piperidin-1-yl)-3-methyl-5-oxo-5,7-dihydro-6H-pyrrolo[3,4-b]pyridin-6-yl)phosphonate] |
| 7.21 | Cc1c(N2CCC(Oc3ccc4c(c3)COC4)CC2)nc2c(c1C)C(=O)NC2 [Example 328, 2-(4-((1,3-Dihydro-2-benzofuran-5-yl)oxy)piperidin-1-yl)-3,4-dimethyl-6,7-dihydro-5H-pyrrolo[3,4-b]pyridin-5-one] |
